≈ marks a conversion by molar mass, not a printed value.
What was measured:
Assay in all cases: CLSI broth dilution MIC determination
Format in all cases: cell-based
[1] = system: A. baumannii chromosomal class C; settings: Gram-negative
S. pyogenes ATCC 19615 = settings: S. pyogenes ATCC 19615; Gram-positive
A. baumannii ATCC 19606 = system: A. baumannii ATCC 19606
E. faecalis ATCC 29212 = settings: E. faecalis ATCC 29212; Gram-positive
A. baumannii IMP-4 = settings: Gram-negative
K. pneumoniae KPC-2 = settings: Gram-negative
[2] = system: E. faecalis Vancomycin-resistant; settings: E. faecalis Vancomycin-resistant; Gram-positive
[3] = system: A. baumannii imipenem-resistant; settings: Gram-negative
[4] = system: S. pyogenes Macrolide-resistant; settings: S. pyogenes Macrolide-resistant; Gram-positive
[5] = system: H. influenzae Erythro >4, Azithro 1; settings: H. influenzae Erythro >4, Azithro 1; Gram-negative
Source text: MIC data was collected for the novel macrolides that this platform has produced against over 21 unique strains of B. subtilis, E. coli, S. aureus, S. pneumoniae, and H. influenzae, including several multidrug-resistant strains, with a special focus on macrolide resistant mechanisms (vide supra). […] CLSI standard procedures for broth dilution MIC determination were used. […] These genotypes can be constitutive or inducible.

S. aureus MRSA: USA300 = system: S. aureus MRSA: USA300
Source text: (§1) MIC data was collected for the novel macrolides that this platform has produced against over 21 unique strains of B. subtilis, E. coli, S. aureus, S. pneumoniae, and H. influenzae, including several multidrug-resistant strains, with a special focus on macrolide resistant mechanisms (vide supra). Azithromycin (Azithro) and Solithromycin (Solithro) were included as a control macrolides in many cases. CLSI standard procedures for broth dilution MIC determination were used. […] These genotypes can be constitutive or inducible.

S. aureus USA600, GISA = settings: S. aureus USA600, GISA; Gram-positive
Source text: as §1

E. coli NDM-1 = settings: Gram-negative
Source text: as §1

[6] = system: S. pneumoniae mef A genotype (second strain so labelled); settings: Gram-positive
Source text: as §1

S. aureus MRSA: USA100 = settings: S. aureus MRSA: USA100; Gram-positive
Source text: as §1

K. pneumoniae TEM-10 = settings: Gram-negative
Source text: as §1

S. pneumoniae ATCC 49619 = settings: S. pneumoniae ATCC 49619; Gram-positive
Source text: as §1

E. coli TEM-1 = settings: E. coli TEM-1; Gram-negative
Source text: as §1

H. influenzae ATCC49247 = settings: Gram-negative
Source text: as §1

S. aureus ATCC 29213 = system: S. aureus ATCC 29213
Source text: as §1

S. aureus erm A genotype = settings: S. aureus erm A genotype; Gram-positive
Source text: as §1

E. coli CTX-M-14 = settings: Gram-negative
Source text: as §1

E. coli ATCC 25922 = system: E. coli ATCC 25922
Source text: as §1

K. pneumoniae ATCC 10031 = system: K. pneumoniae ATCC 10031
P. aeruginosa ATCC 27853 = system: P. aeruginosa ATCC 27853
[7] = system: P. aeruginosa HPA101-1477; settings: Gram-negative
K. pneumoniae SHV-12 = settings: Gram-negative
[8] = system: K. pneumoniae MP-548 clinical
[9] = system: K. pneumoniae MP-546 Clinical-MDR
[10] = system: A. baumannii MP-576 Clinical-MDR
[11] = system: A. baumannii MP-577 Clinical-AZT low
[12] = system: E. coli MP-9 ATCC25922:tolC; settings: E. coli MP-9, ATCC25922:tolC
Source text: as §1

[13] = system: S. aureus MP-17 ATCCBAA-977 (BAA 977 iErm); settings: S. aureus MP-17, ATCCBAA-977, iErm
Source text: as §1

[14] = system: S. aureus (MRSA) MP-513 ST-228 cErm (Clinical-cErm)
Source text: as §1

E. coli MP-541 clinical = system: E. coli MP-541 clinical
Source text: as §1

[15] = system: E. coli MP-532 clinical-cErmB; settings: E. coli MP-532, clinical-cErmB
Source text: as §1

P. aeruginosa MP-7 PAO1 = system: P. aeruginosa MP-7 PAO1
[16] = system: P. aeruginosa MP-8 PAO1:mex (mex-oprM-deletion); settings: P. aeruginosa MP-8, PAO1:mex, mex-oprM-deletion
[17] = A. baumannii ATCC 19606 (MP-15)
[18] = S. aureus MRSA: USA300 (MP-549, msr(a))
[19] = K. pneumoniae ATCC 10031 (MP-14)
[20] = P. aeruginosa ATCC 27853 (MP-3)

SMILES: CC[C@H]1OC(=O)[C@@](C)(F)C(=O)[C@H](C)[C@@H](O[C@@H]2OC(C)CC(N(C)C)C2O)[C@](C)(OC)C[C@@H](C)C(=O)[C@H](C)[C@H]2N(C/C=C/Cn3cc(-c4cccc(N)c4)nn3)C(=O)O[C@]12C (stereo partly shown) [FSM-11563]
- MIC [1]: 2 µg/mL (≈ 2.37 µM)
- MIC (S. pyogenes ATCC 19615): ≤ 0.0312 µg/mL
- MIC (A. baumannii ATCC 19606; A. baumannii ATCC 19606, Gram-negative): 4 µg/mL (≈ 4.74 µM)
- MIC (E. faecalis ATCC 29212): ≤ 0.0312 µg/mL
- MIC (A. baumannii IMP-4): > 32 µg/mL
- MIC (K. pneumoniae KPC-2): > 32 µg/mL
- MIC [2]: 4 µg/mL (≈ 4.74 µM)
- MIC [3]: 4 µg/mL (≈ 4.74 µM)
- MIC [4]: ≤ 0.0312 µg/mL
- MIC [5]: 4 µg/mL (≈ 4.74 µM)
- MIC (S. aureus MRSA: USA300; S. aureus MRSA: USA300, Gram-positive): 0.125 µg/mL (≈ 0.148 µM)
- MIC (S. aureus USA600, GISA): > 32 µg/mL
- MIC (E. coli NDM-1): > 32 µg/mL
- MIC [6]: ≤ 0.0312 µg/mL
- MIC (S. aureus MRSA: USA100): > 32 µg/mL
- MIC (K. pneumoniae TEM-10): 32 µg/mL (≈ 38 µM)
- MIC (S. pneumoniae ATCC 49619): ≤ 0.0312 µg/mL
- MIC (E. coli TEM-1): 16 µg/mL (≈ 19 µM)
- MIC (H. influenzae ATCC49247): 2 µg/mL (≈ 2.37 µM)
- MIC (S. aureus ATCC 29213; S. aureus ATCC 29213, Gram-positive): 0.0625 µg/mL (≈ 0.0741 µM)
- MIC (S. aureus erm A genotype): > 32 µg/mL
- MIC (E. coli CTX-M-14): > 32 µg/mL
- MIC (E. coli ATCC 25922; E. coli ATCC 25922, Gram-negative): 16 µg/mL (≈ 19 µM)
- MIC (K. pneumoniae ATCC 10031; K. pneumoniae ATCC 10031, Gram-negative): 4 µg/mL (≈ 4.74 µM)
- MIC (P. aeruginosa ATCC 27853; P. aeruginosa ATCC 27853, Gram-negative): 32 µg/mL (≈ 38 µM)
- MIC [7]: > 32 µg/mL
- MIC (K. pneumoniae SHV-12): > 32 µg/mL

SMILES: CCC1OC(=O)C(C)(F)C(=O)C(C)C(OC2OC(C)CC(N(C)C)C2O)C(C)(OC)CC(C)C(=O)C(C)C2N(CC=C=Cn3cc(-c4ccnc(N)n4)nn3)C(=O)OC12C (stereo not shown) [FSM-22737]
- MIC (A. baumannii ATCC 19606; [17]): 16 µg/mL (≈ 19 µM)
- MIC [8]: 64 µg/mL (≈ 75.9 µM)
- MIC [9]: >64 µg/mL
- MIC [10]: >64 µg/mL
- MIC [11]: 32 µg/mL (≈ 38 µM)
- MIC (S. aureus MRSA: USA300; [18]): 0.25 µg/mL (≈ 0.297 µM)
- MIC [12]: 2 µg/mL (≈ 2.37 µM)
- MIC [13]: 0.25 µg/mL (≈ 0.297 µM)
- MIC [14]: >64 µg/mL
- MIC (E. coli MP-541 clinical): 16 µg/mL (≈ 19 µM)
- MIC (S. aureus ATCC 29213; S. aureus ATCC 29213 (MP-12)): 0.25 µg/mL (≈ 0.297 µM)
- MIC [15]: >64 µg/mL
- MIC (E. coli ATCC 25922; E. coli ATCC 25922 (MP-4)): 16 µg/mL (≈ 19 µM)
- MIC (P. aeruginosa MP-7 PAO1): >64 µg/mL
- MIC (K. pneumoniae ATCC 10031; [19]): 8 µg/mL (≈ 9.49 µM)
- MIC (P. aeruginosa ATCC 27853; [20]): >64 µg/mL
- MIC [16]: 16 µg/mL (≈ 19 µM)

SMILES: CCC1OC(=O)C(C)(F)C(=O)C(C)C(OC2OC(C)CC(N(C)C)C2O)C(C)(OC)CC(C)C(=O)C(C)C2N(CC=C=Cn3cc(-c4nccc(N)n4)nn3)C(=O)OC12C (stereo not shown) [FSM-22738]
- MIC (A. baumannii ATCC 19606; [17]): 8 µg/mL (≈ 9.49 µM)
- MIC [8]: 64 µg/mL (≈ 75.9 µM)
- MIC [9]: >64 µg/mL
- MIC [10]: >64 µg/mL
- MIC [11]: 32 µg/mL (≈ 38 µM)
- MIC (S. aureus MRSA: USA300; [18]): 0.25 µg/mL (≈ 0.297 µM)
- MIC [12]: 1 µg/mL (≈ 1.19 µM)
- MIC [13]: 0.25 µg/mL (≈ 0.297 µM)
- MIC [14]: 32 µg/mL (≈ 38 µM)
- MIC (E. coli MP-541 clinical): 16 µg/mL (≈ 19 µM)
- MIC (S. aureus ATCC 29213; S. aureus ATCC 29213 (MP-12)): 0.25 µg/mL (≈ 0.297 µM)
- MIC [15]: >64 µg/mL
- MIC (E. coli ATCC 25922; E. coli ATCC 25922 (MP-4)): 8 µg/mL (≈ 9.49 µM)
- MIC (P. aeruginosa MP-7 PAO1): 64 µg/mL (≈ 75.9 µM)
- MIC (K. pneumoniae ATCC 10031; [19]): 4 µg/mL (≈ 4.75 µM)
- MIC (P. aeruginosa ATCC 27853; [20]): 64 µg/mL (≈ 75.9 µM)
- MIC [16]: 8 µg/mL (≈ 9.49 µM)
